Measured values as given in paper PMC6010091, “Inhibition of the β-carbonic anhydrase from the dandruff-producing fungus Malassezia globosa with monothiocarbamates” (Journal of Enzyme Inhibition and Medicinal Chemistry, 2017).

What follows are compounds tested against T1, MgCA (Malassezia globosa, UniProt A8Q1N3) (assay: stopped-flow CO2 hydration assay, Cheng-Prusoff).
T1 construct: gene MGL_1814; recombinant, purified; dimer in the homology model; Zn ligands C47, H103, C106
T1 sequence (A8Q1N3 1-241): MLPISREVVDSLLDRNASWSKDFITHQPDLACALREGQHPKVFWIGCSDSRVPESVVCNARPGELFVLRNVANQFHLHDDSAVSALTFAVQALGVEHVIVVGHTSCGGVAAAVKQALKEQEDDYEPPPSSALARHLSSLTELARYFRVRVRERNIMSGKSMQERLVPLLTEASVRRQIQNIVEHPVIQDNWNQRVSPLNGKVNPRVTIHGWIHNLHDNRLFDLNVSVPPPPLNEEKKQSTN
Type: biochemical
In the case of `O=C(CN1CCN(C(=O)S)CC1)NC1CCCCC1` [compound 15, 15], the Ki is reported as 6.13 µM.
Compound `CCCCN(CCCC)C(=O)S` [compound 5, 5] has a Ki of 7.52 µM.
`CCCN(CCC)C(=O)S` [compound 4, 4] gave a Ki of 1.85 µM.
In the case of `O=C(S)N1CCNCC1` [compound 11, 11], the Ki is reported as 7.41 µM.
`CC(C)CN(CC(C)C)C(=O)S` [compound 6, 6] gave a Ki of 8.61 µM.
`O=C(S)N1CCN(c2ccc(F)cc2)CC1` [compound 12, 12] gave a Ki of 8.33 µM.
In the case of `CCCCN(CC)C(=O)S` [compound 7, 7], the Ki is reported as 5.26 µM.
`O=C(S)N1CCN(c2cccc(Cl)c2)CC1` [compound 14, 14] showed a Ki of 15.9 µM.
`CN(Cc1ccccc1)C(=O)S` [compound 9, 9] showed a Ki of 7.61 µM.
For `O=C(S)N1CCN(c2ccc(C(F)(F)F)cc2)CC1` [compound 13, 13], the Ki was 4.22 µM.
Work on `O=C(S)N1CCOCC1` [compound 10, 10] yielded a Ki of 7.65 µM.
Work on `S=C(S)SCc1ccccc1` [compound 16, 16] yielded a Ki of 8.12 µM.
For `S=C(S)OCCc1ccccc1` [compound 17, 17], the Ki was 16.2 µM.
